This note sets out measurements from ChEMBL document CHEMBL5576048, “A Second-Generation Oral SARS-CoV-2 Main Protease Inhibitor Clinical Candidate for the Treatment of COVID-19” (J Med Chem, 2024).

In this assay the test system is SARS-CoV-2. The experiment in a line: Antiviral activity against SARS-CoV-2 Delta variant infected in African green monkey VeroE6/TMPRSS2 cells. Format: functional, organism-based. The conditions noted are these: Severe acute respiratory syndrome coronavirus 2, Delta.

The EC50 is the midpoint of the concentration-response curve.

The structures appear in SMILES notation.

`CCC(CC)COC(=O)[C@H](C)N[P@](=O)(OC[C@H]1O[C@@](C#N)(c2ccc3c(N)ncnn23)[C@H](O)[C@@H]1O)Oc1ccccc1`: the EC50 turned out to be 161 nM.
